Experimental data: patent publication US20250376498A1, “FUSION PROTEINS COMPRISING AN IMPROVED GLP-1 RECEPTOR AGONIST AND USES THEREOF” (Guangzhou Innogen Pharmaceutical Group Co., Ltd., priority 2022, published 2025)

B1: YN-011: GLP-1 fusion protein of SEQ ID NO: 7: GLP-1 (A8G, G22E, R36G), linker peptide and IgG2/Fc domain (C222S, A330S, P331S) (protein)
chain: HGEGTFTSDVSSYLEEQAAKEFIAWLVKGGGSSGAPPPSGGGGSERKSCVECPPCPAPPVAGPSVFLFPPKPKDTLMISRTPEVTCVVVDVSHEDPEVQFNWYVDGVEVHNAKTKPREEQFNSTFRVVSVLTVVHQDWLNGKEYKCKVSNKGLPSSIEKTISKTKGQPREPQVYTLPPSREEMTKNQVSLTCLVKGFYPSDIAVEWESNGQPENNYKTTPPMLDSDGSFFLYSKLTVDKSRWQQGNVFSCSVMHEALHNHYTQKSLSLSPG

Tests used:
HMC3 microglial cells [1] = test: Inflammatory factor mRNA in HMC3 microglial cells induced by Aβ1-42 oligomers (qPCR); type: cell-based, human; conditions: for mRNA expression of IL-6 / mRNA expression of TNF-α: 10 μM Aβ1-42 oligomers, 48 hours, YN-011 100 nM and 500 nM; for mRNA expression of IL-6: GABA 10 μM and 100 μM (so in the source); for mRNA expression of TNF-α: GABA 100 μM, combination 100 μM GABA and 100 nM YN-011; for inflammatory cytokine mRNA expression: Aβ1-42 oligomers (figure legends)
Method: Under sterile conditions, dissolve the synthesized Aβ1-42 peptide (AnaSpec #AS-20276) in hexafluoroisopropanol (Mecklin #H811026) to obtain a 1 mM solution. Divide the solution into 1.5 ml sterile centrifuge tubes and evaporate the hexafluoroisopropanol in a vacuum evaporator. The dried peptide forms a film in the tubes and is stored at −20° C. for later use. Freshly prepare Aβ1-42 oligomers from the dried peptide film as follows: dissolve the dried peptide film in anhydrous DMSO to obtain a 5 mM solution, then dilute with cold cell culture basal medium to obtain a 100 µM stock solution. After incubating at 4° C. for 24 hours, use the stock solution for cell treatment.
Seed HMC3 human microglial cells into a 24-well plate. After overnight incubation at 37° C. with 5% CO2, treat the cells in each well with 10 μM Aβ1-42 oligomers alone or co-treated with 1, 10, or 100 μM GABA for 48 hours. Each drug treatment is performed in three replicate wells. After 48 hours of treatment, isolate total RNA from the cells in each well using 1 ml of Trizol (Invitrogen #15596026) following the manufacturer's instructions. Dissolve the RNA pellet in 20 μl of DEPC-treated water. Measure the RNA concentration and purity using a NanoDrop 2000. Convert RNA into cDNA using a reverse transcription kit (Yeasen #11141ES60). Prepare the PCR reaction as follows: 5 μl of PCR mix (Yeasen #10108ES03), 0.2 μl of forward primer, 0.2 μl of reverse primer, 1 μl of cDNA, and 3.6 μl of water. Perform qPCR on an Applied Biosystems 7500 real-time PCR system using the following thermal program: initial denaturation at 95° C. for 3 minutes, followed by 40 cycles of denaturation at 95° C. for 30 seconds, annealing at 60° C. for 30 seconds, and extension at 72° C. for 1 minute. Compare the relative mRNA expression of TNF-α and IL-6 between treated and untreated cells using the ΔΔCt method, normalized to the expression of the housekeeping gene RPLP0.
(§1) Please refer to section 8.17 for the experimental procedure, but the drug treatment in this experiment is different from that in section 8.17. In this experiment, the drug treatment is as follows: treat the cells in each well with 10 μM Aβ1-42 oligomers alone or co-treated with 10, 100, or 500 nM YN-011 for 48 hours. Each drug treatment is performed in three replicate wells.
as §1, with “µM” for “μM”, “100 μM GABA and/or 100” for “10, 100, or 500”

HMC3 microglial cells [2] = test: Inflammatory factor expression in HMC3 microglial cells induced by Aβ1-42 oligomers (western blot); type: cell-based, human; conditions: for expression of TNF-α (protein) / expression of IL-6 (protein): 10 μM Aβ1-42 oligomers, 48 hours, YN-011 100 nM and 500 nM, combination 100 μM GABA and 100 nM YN-011; for expression of TNF-α (protein): GABA 10 µM and 100 μM; for expression of IL-6 (protein): GABA 100 μM; for inflammatory cytokine expression: Aβ1-42 oligomers (figure legends)
Method: Seed HMC3 human microglial cells into a 12-well plate. After overnight incubation at 37° C. with 5% CO2, treat the cells in each well with 10 μM Aβ1-42 oligomers alone or co-treated with 1, 10, or 100 μM GABA for 48 hours. Each drug treatment is performed in three replicate wells. After 48 hours of treatment, wash the cells with PBS and lyse the cells in RIPA buffer supplemented with protease inhibitor and phosphatase inhibitor on ice for 15 minutes. Centrifuge the cell lysate at 14,000 rpm for 30 minutes. Collect the supernatant, mix with 5× loading buffer supplemented with β-mercaptoethanol, and boil at 100° C. for 10 minutes. Separate denatured proteins by SDS-PAGE. Briefly, load 10 μg of protein onto precast mini polyacrylamide gels (SurePAGE, GenScript #M00657) and run at 120 V voltage. Subsequently, transfer the gel onto a PVDF membrane (0.22 μm pore size) at 200 mA for 90 minutes. After […], incubate the membrane at room temperature with primary antibodies diluted in 5% milk solution (TNF-α, Proteintech #60291-Ig; IL-6, Proteintech #21865-1-AP; HSP90, Proteintech #13171-1-AP) overnight at 4° C. After washing, incubate the membrane with corresponding secondary antibodies (Jackson Lab, 1:10000) at room temperature for 1 hour. After washing, visualize the antibody signals on the membrane using an ECL kit (Millipore #WBKLS0500) following the manufacturer's instructions. Calculate the relative protein levels normalized to the endogenous protein HSP90 using ImageJ.
as §1, with “8.20” for “8.17”, “8.20.” for “8.17.”
as §1, with “8.20” for “8.17”, “8.20.” for “8.17.”, “100 μM GABA and/or 100” for “10, 100, or 500”

Molecule | mRNA expression of IL-6 (HMC3 microglial cells [1]) | mRNA expression of TNF-α (HMC3 microglial cells [1]) | inflammatory cytokine mRNA expression (HMC3 microglial cells [1]) | expression of TNF-α (protein) (HMC3 microglial cells [2]) | expression of IL-6 (protein) (HMC3 microglial cells [2]) | inflammatory cytokine expression (HMC3 microglial cells [2])
NCCCC(=O)O [GABA, γ-aminobutyric acid] | significantly reduce | significantly reduces | reduction of inflammatory cytokine mRNA expression | significantly reduce | significantly reduces | reduction of inflammatory cytokine expression
B1 | significantly reduce | significantly reduce | reduction of inflammatory cytokine mRNA expression | significantly reduce | significantly reduce | reduction of inflammatory cytokine expression
